Values of other authors in patent publication US7285553B2, “Serotonergic 5HT7 receptor compounds for treating ocular and CNS disorders” (Alcon Manufacturing, Ltd., priority 1998, dated 2007).
Where two headings read alike, the source gives them in different places.

Legend:
rabbit eye = settings: for IOP: rabbits; for intraocular pressure in the anterior chamber of the eye: topically applied to the rabbit eye
IOP [1] = settings: glaucomatous monkeys
IOP [2] = test system: IOP
IOP [3] = test system: IOP; remark: listed apart in the source

For `CC[C@@H](CO)NC(=O)[C@@H]1C=C2c3cccc4c3c(cn4C)C[C@H]2N(C)C1` [Methysergide], the IOP (rabbit eye) is given as “lowered IOP”.

In the case of `NCCc1c[nH]c2ccc(C(N)=O)cc12` [Example 5-CT, 5-carboxamidotryptamine], the “intraocular pressure in the anterior chamber of the eye” value (rabbit eye) is given as “raise intraocular pressure”.

In the case of `CCCN(CCC)C1CCc2cccc(O)c2C1` (centres unmarked) [8-hydroxy DPAT], the IOP (rabbit eye) is listed as “lower IOP”.

In the case of `COc1ccccc1N1CCN(CCCNc2c(C)c(=O)n(C)c(=O)n2C)CC1` [5-methylurapidil], the IOP (IOP [1]) is given as “lowered IOP”.

In the case of `O=C(c1ccc(F)cc1)C1CCN(CCn2c(=O)[nH]c3ccccc3c2=O)CC1` [Ketanserin], the IOP (rabbit eye) is given as “lowers IOP” and the IOP (IOP [2]; man) is given as “lowers IOP”.

For `NCCc1c[nH]c2ccc(O)cc12` [Example 5HT, 5-hydroxy tryptamine], the IOP (IOP [3]; intracamerally) is listed as “raised IOP”, the blood-aqueous barrier (IOP [3]; intracamerally) is listed as “caused breakdown of the blood-aqueous barrier” and the IOP (IOP [3]; topically applied) is listed as “lowers IOP”. The “intraocular pressure in the anterior chamber of the eye” value (rabbit eye) was “raise intraocular pressure”.

For `COc1cccc(CCc2ccccc2OCC(CN(C)C)OC(=O)CCC(=O)O)c1` (centres unmarked) [Saprogrelate], the IOP (rabbit eye; dosed topically or orally) is given as “lowers IOP” and the IOP (IOP [2]; man, dosed topically or orally) is given as “lowers IOP”.

In the case of `c1ccc2c(c1)OC[C@H](CNCCCOc1ccc3c(c1)OCO3)O2` [MKC-242], the IOP (rabbit eye) is listed as “lower IOP”.

For `CNCCC(Oc1ccc(C(F)(F)F)cc1)c1ccccc1` (centres unmarked) [fluoxetine], the IOP (IOP [2]; human subjects, oral administration) is listed as “raises IOP”.
